Key:
rice (Diamant variety) = test: Rice seed treatment with BHMPA salts: germinating power; type: in vivo
Experimental: (§1) Experimental versions—soaking seeds in BHMPA solutions and solutions of BHMPA Ca, Mg, Na, Co, Mn, Cu, and Zn salts at 1·10^−6-1·10^−12% concentrations (doses). The studies were conducted in laboratory in Petri dishes; seed bed—two layers of filter paper. 50 seeds soaked in water (control) and in the solutions of the tested compounds (experimental) were placed into each dish. Wheat, corn, and rice seeds were exposed for one hour.
(§2) Seed germination energy and rate were calculated in percent as an arithmetic mean of the four experimental results (germination energy on the 4th day, wheat germination on the 8th day, rice and corn germination—on the 7th day). Germination was determined based on the germinating power indicators (length of the roots and sprouts and their wet and dry mass per 100 shoots).
(§3) The effect of pre-sowing seed treatment with the claimed BHMPA salts of biogenic metals was studied on winter wheat (Vershin variety), corn (Krasnodar 385 MV variety), and rice (Diamant variety).
The above data describe the seed viability only at the initial stage of germination, while the germination ability at the later stage of germination is defined by the initial germinating power. The method for the determination of the germinating power comprises measuring the height of the sprouts and primary roots, as well as the biomass and the dry mass thereof per 100 seedlings. [M. A. Kartuzova. Initial Germinating Power as Method of Biological Assessment of Seed Quality. Selection and Seed Farming, #2, 1953].

[1] = system: winter wheat (Vershin variety); test: Winter wheat seed treatment with BHMPA salts: germination energy and germination rate; type: in vivo
Experimental: Control—Soaking Seeds in Water;
as §1
Analysis was conducted according to the government standards GOST 12038-84 “Crop seeds. Technical conditions for determining the germination energy and germination rate”, GOST 12044-93 “Crop seeds. Methods for determining disease contamination.”
as §2, §3

[2] = rice seed treatment, comparison with Melaphen (Table XXXIII), solution 1 · 10^−9%
[3] = rice seeds, solution concentration 1 · 10^−6%
[4] = rice seeds, solution concentration 1 · 10^−7%
[5] = rice seeds, solution concentration 1 · 10^−8%
[6] = rice seeds, solution concentration 1 · 10^−9%
[7] = rice seeds, solution concentration 1 · 10^−10%
[8] = rice seeds, solution concentration 1 · 10^−11%
[9] = rice seeds, solution concentration 1 · 10^−12%
[10] = rice, vs control, 1·10^−9% solution
[11] = winter wheat Vershin, 1·10^−6% solution
[12] = winter wheat Vershin, 1·10^−7% solution
[13] = winter wheat Vershin, 1·10^−8% solution
[14] = winter wheat Vershin, 1·10^−9% solution
[15] = winter wheat Vershin, 1·10^−10% solution
[16] = winter wheat Vershin, 1·10^−11% solution
[17] = winter wheat Vershin, 1·10^−12% solution
[18] = winter wheat, comparative study vs Melaphen, 1·10^−12% solution

Compound: O=P([O-])(CO)CO.O=P([O-])(CO)CO.[Ca+2] [Ca-salt, Calcium BHMPA Salt]
- optimum concentration for treating rice seeds before sowing (rice (Diamant variety); rice): 1·10^−9%
- Length, root (rice (Diamant variety); [2]): 6.2 cm
- Length, root, + % to control (rice (Diamant variety); [2]): 29%
- Length, sprout (rice (Diamant variety); [2]): 3.5 cm
- Length, sprout, + % to control (rice (Diamant variety); [2]): 35%
- Mass, dry, root (rice (Diamant variety); [2]): 0.23 g/100 plantlings
- Mass, dry, root, + % to control (rice (Diamant variety); [2]): 9.5%
- Mass, dry, sprout (rice (Diamant variety); [2]): 0.27 g/100 plantlings
- Mass, dry, sprout, + % to control (rice (Diamant variety); [2]): 8%
- Mass, wet, root (rice (Diamant variety); [2]): 1.33 g/100 plantlings
- Mass, wet, root, + % to control (rice (Diamant variety); [2]): 36%
- Mass, wet, sprout (rice (Diamant variety); [2]): 2.24 g/100 plantlings
- Mass, wet, sprout, + % to control (rice (Diamant variety); [2]): 48%
- Length, root (rice (Diamant variety); [3]): 5.7 cm
- Length, root, + % to control (rice (Diamant variety); [3]): 10%
- Length, sprout (rice (Diamant variety); [3]): 2.8 cm
- Length, sprout, + % to control (rice (Diamant variety); [3]): 12%
- Mass, dry, root (rice (Diamant variety); [3]): 0.19 g/100 plantlings
- Mass, dry, root, + % to control (rice (Diamant variety); [3]): 12%
- Mass, dry, sprout (rice (Diamant variety); [3]): 0.23 g/100 plantlings
- Mass, dry, sprout, + % to control (rice (Diamant variety); [3]): 9.5%
- Mass, wet, root (rice (Diamant variety); [3]): 1.10 g/100 plantlings
- Mass, wet, root, + % to control (rice (Diamant variety); [3]): 14.5%
- Mass, wet, sprout (rice (Diamant variety); [3]): 1.92 g/100 plantlings
- Mass, wet, sprout, + % to control (rice (Diamant variety); [3]): 9%
- Length, root (rice (Diamant variety); [4]): 5.9 cm
- Length, root, + % to control (rice (Diamant variety); [4]): 13%
- Length, sprout (rice (Diamant variety); [4]): 3.0 cm
- Length, sprout, + % to control (rice (Diamant variety); [4]): 20%
- Mass, dry, root (rice (Diamant variety); [4]): 0.24 g/100 plantlings
- Mass, dry, root, + % to control (rice (Diamant variety); [4]): 41%
- Mass, dry, sprout (rice (Diamant variety); [4]): 0.26 g/100 plantlings
- Mass, dry, sprout, + % to control (rice (Diamant variety); [4]): 24%
- Mass, wet, root (rice (Diamant variety); [4]): 1.21 g/100 plantlings
- Mass, wet, root, + % to control (rice (Diamant variety); [4]): 26%
- Mass, wet, sprout (rice (Diamant variety); [4]): 2.16 g/100 plantlings
- Mass, wet, sprout, + % to control (rice (Diamant variety); [4]): 23%
- Length, root (rice (Diamant variety); [5]): 6.3 cm
- Length, root, + % to control (rice (Diamant variety); [5]): 21%
- Length, sprout (rice (Diamant variety); [5]): 3.1 cm
- Length, sprout, + % to control (rice (Diamant variety); [5]): 24%
- Mass, dry, root (rice (Diamant variety); [5]): 0.27 g/100 plantlings
- Mass, dry, root, + % to control (rice (Diamant variety); [5]): 59%
- Mass, dry, sprout (rice (Diamant variety); [5]): 0.28 g/100 plantlings
- Mass, dry, sprout, + % to control (rice (Diamant variety); [5]): 33%
- Mass, wet, root (rice (Diamant variety); [5]): 1.24 g/100 plantlings
- Mass, wet, root, + % to control (rice (Diamant variety); [5]): 29%
- Mass, wet, sprout (rice (Diamant variety); [5]): 2.25 g/100 plantlings
- Mass, wet, sprout, + % to control (rice (Diamant variety); [5]): 28%
- Length, root (rice (Diamant variety); [6]): 6.6 cm
- Length, root, + % to control (rice (Diamant variety); [6]): 27%
- Length, sprout (rice (Diamant variety); [6]): 3.2 cm
- Length, sprout, + % to control (rice (Diamant variety); [6]): 28%
- Mass, dry, root (rice (Diamant variety); [6]): 0.30 g/100 plantlings
- Mass, dry, root, + % to control (rice (Diamant variety); [6]): 76%
- Mass, dry, sprout (rice (Diamant variety); [6]): 0.32 g/100 plantlings
- Mass, dry, sprout, + % to control (rice (Diamant variety); [6]): 52%
- Mass, wet, root (rice (Diamant variety); [6]): 1.29 g/100 plantlings
- Mass, wet, root, + % to control (rice (Diamant variety); [6]): 34%
- Mass, wet, sprout (rice (Diamant variety); [6]): 2.36 g/100 plantlings
- Mass, wet, sprout, + % to control (rice (Diamant variety); [6]): 34%
- Length, root (rice (Diamant variety); [7]): 6.4 cm
- Length, root, + % to control (rice (Diamant variety); [7]): 23%
- Length, sprout (rice (Diamant variety); [7]): 3.0 cm
- Length, sprout, + % to control (rice (Diamant variety); [7]): 20%
- Mass, dry, root (rice (Diamant variety); [7]): 0.28 g/100 plantlings
- Mass, dry, root, + % to control (rice (Diamant variety); [7]): 65%
- Mass, dry, sprout (rice (Diamant variety); [7]): 0.29 g/100 plantlings
- Mass, dry, sprout, + % to control (rice (Diamant variety); [7]): 38%
- Mass, wet, root (rice (Diamant variety); [7]): 1.27 g/100 plantlings
- Mass, wet, root, + % to control (rice (Diamant variety); [7]): 32%
- Mass, wet, sprout (rice (Diamant variety); [7]): 2.28 g/100 plantlings
- Mass, wet, sprout, + % to control (rice (Diamant variety); [7]): 29.5%
- Length, root (rice (Diamant variety); [8]): 6.0 cm
- Length, root, + % to control (rice (Diamant variety); [8]): 15%
- Length, sprout (rice (Diamant variety); [8]): 2.9 cm
- Length, sprout, + % to control (rice (Diamant variety); [8]): 16%
- Mass, dry, root (rice (Diamant variety); [8]): 0.23 g/100 plantlings
- Mass, dry, root, + % to control (rice (Diamant variety); [8]): 35%
- Mass, dry, sprout (rice (Diamant variety); [8]): 0.27 g/100 plantlings
- Mass, dry, sprout, + % to control (rice (Diamant variety); [8]): 28.5%
- Mass, wet, root (rice (Diamant variety); [8]): 1.22 g/100 plantlings
- Mass, wet, root, + % to control (rice (Diamant variety); [8]): 27%
- Mass, wet, sprout (rice (Diamant variety); [8]): 1.98 g/100 plantlings
- Mass, wet, sprout, + % to control (rice (Diamant variety); [8]): 12.5%
- Length, root (rice (Diamant variety); [9]): 5.6 cm
- Length, root, + % to control (rice (Diamant variety); [9]): 8%
- Length, sprout (rice (Diamant variety); [9]): 2.7 cm
- Length, sprout, + % to control (rice (Diamant variety); [9]): 8%
- Mass, dry, root (rice (Diamant variety); [9]): 0.19 g/100 plantlings
- Mass, dry, root, + % to control (rice (Diamant variety); [9]): 12%
- Mass, dry, sprout (rice (Diamant variety); [9]): 0.26 g/100 plantlings
- Mass, dry, sprout, + % to control (rice (Diamant variety); [9]): 24%
- Mass, wet, root (rice (Diamant variety); [9]): 1.06 g/100 plantlings
- Mass, wet, root, + % to control (rice (Diamant variety); [9]): 10%
- Mass, wet, sprout (rice (Diamant variety); [9]): 1.88 g/100 plantlings
- Mass, wet, sprout, + % to control (rice (Diamant variety); [9]): 7%
- dry mass of the roots increased by (rice (Diamant variety); [10]): 76%
- dry mass of the sprouts increased by (rice (Diamant variety); [10]): 52%
- length of the root increased by (rice (Diamant variety); [10]): 27%
- length of the sprout increased by (rice (Diamant variety); [10]): 28%
- wet mass of the roots increased by (rice (Diamant variety); [10]): 34%
- wet mass of the sprouts increased by (rice (Diamant variety); [10]): 34%
- Germination energy [1, 11]: 85.3%
- Germination rate [1, 11]: 88.0%
- Germination energy [1, 12]: 90.8%
- Germination rate [1, 12]: 94.3%
- Germination energy [1, 13]: 80.9%
- Germination rate [1, 13]: 84.0%
- Germination energy [1, 14]: 81.2%
- Germination rate [1, 14]: 85.3%
- Germination energy [1, 15]: 86.1%
- Germination rate [1, 15]: 88.0%
- Germination energy [1, 16]: 87.0%
- Germination rate [1, 16]: 89.3%
- Germination energy [1, 17]: 88.9%
- Germination rate [1, 17]: 92.0%
- Germination energy [1, 18]: 87.0%
- Germination rate [1, 18]: 93.7%

— patent publication US10781224B2, “Bis(oxymethyl)phosphinic acid and biogenic metal salts thereof as regulators of plant growth and development” (priority 2016, dated 2020)
